The source made the active and inactive calls. The calls are words filed in the database; no cut-off is given here.

The first experiment has as its system Rattus norvegicus. The experiment in a line: Antispermatogenic activity in po dosed Long-Evans rat assessed as reduction of testes weight administered as single dose measured after 5 days. To be noted: Testis, 120 h, read-out: MED. It is filed as functional.
Turning to `O=C(O)c1nn(Cc2ccc(I)cc2)c2ccccc12`, the minimal effective dose amounted to 528 mg/kg.

As for `O=C(O)c1nn(Cc2ccc(Br)cc2)c2ccccc12`, the minimal effective dose came out at 231 mg/kg.

As to `O=C(OCC(O)CO)c1nn(Cc2ccc(Cl)cc2Cl)c2ccccc12` (stereo not drawn), the minimal effective dose is 69 mg/kg.

For the compound `O=C(O)c1nn(Cc2ccc(Cl)cc2Cl)c2ccccc12` [LONIDAMINE], the minimal effective dose came out at 56 mg/kg.

Consider `O=C(O)Cc1nn(Cc2ccc(Cl)cc2)c2ccccc12`, for which the minimal effective dose came out at 419 mg/kg.

Consider `O=C(O)c1nn(Cc2ccc(Br)cc2Br)c2ccccc12`, for which the minimal effective dose stood at 76.5 mg/kg.

For the compound `Cc1ccc(Cn2nc(C(=O)O)c3ccccc32)c(C)c1` [XINIDAMINE], the minimal effective dose came out at 101 mg/kg.

With `O=C(OC(CO)CO)c1nn(Cc2ccc(Cl)cc2)c2ccccc12`, the minimal effective dose turned out to be 503 mg/kg.

For the compound `O=C(O)c1nn(Cc2ccccc2Cl)c2ccccc12`, the minimal effective dose was 200 mg/kg.

For the compound `Cc1cc(Cl)ccc1Cn1nc(C(=O)O)c2ccccc21` [TOLNIDAMINE], the minimal effective dose amounted to 52 mg/kg.

For `O=C(O)c1nn(Cc2ccc(Cl)cc2)c2ccccc12`, the minimal effective dose is 400 mg/kg.

For `Cc1ccccc1Cn1nc(C(=O)O)c2ccccc21`, the minimal effective dose is 186 mg/kg.

For the compound `O=C(OCC(O)CO)c1nn(Cc2ccccc2Cl)c2ccccc12` (stereo not drawn), the minimal effective dose amounted to 503 mg/kg.

`NC(=O)c1nn(Cc2ccc(Cl)cc2)c2ccccc12`: the minimal effective dose came out at 399 mg/kg.

With `O=C(OCCO)c1nn(Cc2ccc(Cl)cc2)c2ccccc12`, the minimal effective dose was 486 mg/kg.

With `O=C(OCC(O)CO)c1nn(Cc2ccc(Cl)cc2)c2ccccc12` (stereo not drawn), the minimal effective dose was 503 mg/kg.

Turning to `O=C(O)c1nn(Cc2ccc(F)cc2)c2ccccc12`, the minimal effective dose turned out to be 377 mg/kg.

`O=C(O)c1nn(Cc2ccc(Cl)c(Cl)c2)c2ccccc12`: the minimal effective dose was 448 mg/kg.

As to `O=C(O)c1nn(Cc2cccc(Cl)c2)c2ccccc12`, the minimal effective dose was 400 mg/kg.

As to `O=C(O)c1nn(Cc2cc(Cl)c(Cl)cc2Cl)c2ccccc12`, the minimal effective dose worked out at 248 mg/kg.

Consider `O=C(OCC(O)CO)c1nn(Cc2cc(Cl)c(Cl)cc2Cl)c2ccccc12` (stereo not drawn), for which the minimal effective dose was 300 mg/kg.

The next experiment relates to Rattus norvegicus. Nature of the experiment: Antispermatogenic activity in Long-Evans rat assessed as reduction of testes weight at a dose equimolecular to 400 mg/kg of 1-(4-chlorobenzyl)-1H-indazole-3-carboxylic acid administered orally as single dose measured after 5 days. Type of experiment: functional, organism-based. On the set-up: dose 400 mg/kg. Conditions: Testis.
In the case of `Cc1cccc(Cn2nc(C(=O)O)c3ccccc32)c1`, the result was inactive.

`N#Cc1ccc(Cn2nc(C(=O)O)c3ccccc32)cc1`: the outcome was inactive.

`Sc1nn(Cc2cccc(Cl)c2)c2ccccc12`: the result was inactive.

With `Clc1ccc(Cn2nc(-c3nnn[nH]3)c3ccccc32)c(Cl)c1`, the result was inactive.

For the compound `O=C(O)c1cn(Cc2ccc(Cl)cc2)c2ccccc12`, the result was inactive.

As for `CCOC(=O)c1nn(Cc2ccc(Cl)cc2)c2ccccc12`, the outcome was inactive.

For the compound `O=C(Cn1nc(C(=O)O)c2ccccc21)c1ccc(Cl)cc1`, the outcome was inactive.

For the compound `O=C(O)c1ccccc1NCc1cccc2ccccc12`, the result was inactive.

In the case of `O=C(O)c1nn(Cc2c(Cl)cccc2Cl)c2ccccc12`, the result was inactive.

As for `N#Cc1nn(Cc2ccc(Cl)cc2)c2ccccc12`, the outcome was inactive.

`COc1ccc2c(c1)c(C(=O)O)nn2Cc1ccc(Cl)cc1`: the result was inactive.

Take `O=C(O)c1nn(C(=O)c2ccc(Cl)cc2)c2ccccc12`: the outcome was inactive.

In the case of `OCc1nn(Cc2ccc(Cl)cc2)c2ccccc12`, the result was inactive.

On to `O=C(O)c1nn(Cc2ccc(Cl)c3ccccc23)c2ccccc12`, for which the outcome was inactive.

For the compound `Cc1c(C(=O)O)c2ccccc2n1Cc1ccc(Cl)cc1`, the result was inactive.

Consider `O=C(c1ccccc1)c1cccc(Cn2nc(C(=O)O)c3ccccc32)c1`, for which the outcome was inactive.

On to `Clc1ccc(CCn2nc(-c3nnn[nH]3)c3ccccc32)cc1`, for which the result was inactive.

For `O=C(O)c1nn(Cc2ccc(S(=O)(=O)c3ccccc3)cc2)c2ccccc12`, the result was inactive.

Regarding `COC(=O)c1nn(Cc2ccc(Cl)cc2)c2ccccc12`, the outcome was inactive.

Turning to `CC(=O)c1nn(Cc2ccc(Cl)cc2)c2ccccc12`, the outcome was inactive.

For the compound `O=C(O)c1nn(Cc2ccc(Cl)cc2)c2ccc(Cl)cc12`, the outcome was inactive.

On to `Cc1cc(Cl)ccc1Cn1nc(-c2nnn[nH]2)c2ccccc21`, for which the outcome was inactive.

With `CS(=O)(=O)c1ccc(Cn2nc(C(=O)O)c3ccccc32)cc1`, the result was inactive.

Turning to `O=C(O)c1nn(Cc2ccc(Cl)cc2)c2ccc(O)cc12`, the result was inactive.

In the case of `O=C(O)c1nn(Cc2cccc(C(F)(F)F)c2)c2ccccc12`, the result was inactive.

With `O=C(O)c1nn(-c2ccc(Cl)cc2)c2ccccc12`, the result was inactive.

Regarding `O=C(O)c1ccccc1NCc1ccc(Cl)cc1`, the outcome was inactive.

In the case of `Clc1ccc(Cn2ncc3ccccc32)cc1`, the outcome was inactive.

As for `O=C(O)c1cc2ccccc2n1Cc1ccc(Cl)cc1`, the outcome was inactive.

As for `O=C(O)c1nn(S(=O)(=O)c2ccc(Cl)cc2)c2ccccc12`, the outcome was inactive.

Turning to `Cc1nn(Cc2ccc(Cl)cc2)c2ccccc12`, the outcome was inactive.

`O=C(O)CCc1nn(Cc2ccc(Cl)cc2)c2ccccc12`: the result was inactive.

For the compound `O=C(NCCCCCCCCNC(=O)C(Cl)Cl)C(Cl)Cl`, the result was inactive.

Regarding `Clc1ccc(Cn2nc(-c3nnn[nH]3)c3ccccc32)cc1`, the result was inactive.

Consider `Cc1ccc2c(c1)c(C(=O)O)nn2Cc1ccc(Cl)cc1`, for which the outcome was inactive.

Regarding `Nc1nn(Cc2ccc(Cl)cc2)c2ccccc12`, the outcome was inactive.

On to `Cc1ccc(Cn2nc(C(=O)O)c3ccccc32)cc1`, for which the outcome was inactive.
